This assay relates to normal fibroblasts (dermal fibroblasts CCD25Sk). Description: Cell viability neutral red uptake assay, fibroblasts. The class given is cell-based, human. To be noted: Homo sapiens, Fibroblast, read-out: IC50 values ± SD in neutral red uptake assay.

pIC50: −log10 of the molar value. Like-named read-outs stand apart in the source and are kept apart here.

In the case of `COc1ccc(-c2oc3cc(O)c(OC)c(O)c3c(=O)c2OC)cc1` [santin, 5,7-dihydroxy-3,6,4′-trimethoxyflavone], the negative logarithm of the IC50 (pIC50) was under 4.30 (24 h) and under 4.30 (48 h).

Usually pIC50 stands for −log10 of the IC50, conventionally taken in molar units.

(Values after publication PMC10512030, “Prolidase-proline oxidase axis is engaged in apoptosis induction by birch buds flavonol santin in endometrial adenocarcinoma cell line” (Frontiers in Molecular Biosciences, 2023).)
